Measured values published in patent publication US6548508B2, “Use of PDE V inhibitors for improved fecundity in mammals” (Pfizer, Inc., priority 2000, dated 2003).

Columns and labels:
[1] = system: pregnant rats; assay: Birthweights of rat pups after s.c. dosing of pregnant rats throughout gestation; format: in vivo; conditions: for embryonic/foetal growth and birthweight (in words, FIG. 1): s.c. daily 0.3, 1 and 5 mg/kg, gestation days 1-21, pregnant rats; for % increase (birthweights of rat pups): pregnant rats n=10
Protocol: To evaluate the effects of cGMP PDE V inhibition on embryonic and foetal growth, 3-ethyl-5-[5-(4-ethylpiperazin-1-ylsulphonyl)-2-n-propoxyphenyl]-2-(pyridin-2-yl)methyl-2,6-dihydro-7H-pyrazolo[4,3-d]pyrimidin- 7-one was administered s.c. daily in an aqueous micelle formulation at the rate of 0.3, 1 and 5 mg/kg to pregnant rats. The results are illustrated in FIG. 1.
A comparative experiment using a similar protocol was carried out using (A) 3-ethyl-5-[5-(4-ethylpiperazin-1-ylsulphonyl)-2-n-propoxyphenyl]-2-(pyridin-2-yl)methyl-2,6-dihydro-7H-pyrazolo[4,3-d]pyrimidin-7-one and the Lilly-ICOS PDE V inhibitor (B) CILIAS/IC-351. The compounds were administered throughout gestation subcutaneously to pregnant rats (n=10) and the birthweights of their corresponding rat pups were measured.

[2] = system: CBA × DBA mice; assay: Embryo survival in CBA × DBA mice, i.p. dosing during gestation; format: in vivo; conditions: for % Embryo Survival: assessed day 12
Protocol: Female mice of the CBA strain (obtained from Charles River, UK) were crossed with male mice of the DBA strain (obtained from Charles River, UK) and treated i.p. with 3-ethyl-5-[5-(4-ethylpiperazin-1-ylsulphonyl)-2-n-propoxyphenyl]-2-(pyridin-2-yl)methyl-2,6-dihydro-7H-pyrazolo[4,3-d]pyrimidin-7-one at the rate of either 1 mg/kg or 3′mg/kg on days 1 to 8 of gestation. The mice were euthanised on day 12 of gestation and the numbers of viable and non-viable embryos were determined relative to corresponding control mice.
Female mice of the CBA strain (obtained from Charles River, UK) were crossed with male mice of the DBA strain (obtained from Charles River, UK) and treated i.p. with 3-ethyl-5-[5-(4-ethylpiperazin-1-ylsulphonyl)-2-n-propoxyphenyl]-2-(pyridin-2-yl)methyl-2,6-dihydro-7H-pyrazolo[4,3-d]pyrimidin-7-one at the rate of 1 mg/kg on days 1 to 4 or 4 to 8 of gestation. The mice were euthanised on day 12 of gestation and the numbers of viable and non-viable embryos were determined relative to corresponding control mice.

[3] = system: Mini-pigs; assay: Model of uterine blood flow and mean arterial blood pressure in mini-pigs; format: in vivo; conditions: intravenous
Description: A model of uterine blood flow was established to assess the effects of PDE V inhibition on uterine flow and mean arterial blood pressure (MAP). Mini-pigs weighing approximately 30 kg were modified surgically. As a means of quantifying real time uterine blood flow a Transoinc blood flow probe was placed around either the left or right uterine artery. Catheters were inserted into a external jugular vein and a carotid artery for blood sampling/administration of compound and measurement of mean arterial blood pressure (MAP) respectively. Test compound was administered intravenously either during oestrous or the luteal phase of the reproductive cycle and the effects of PDE V inhibition on uterine blood flow and MAP were measured. The Y-axis for the two left hand bars is uterine blood flow (ml/min.), and for the two right hand bars is MAP (mmHg).

[4] = system: Friesian cross heifers; assay: Intra-vaginal dosing of Friesian cross heifers: plasma progesterone and uterine horn histology; format: in vivo, cattle; conditions: intra-vaginally twice daily, 30 days, uterine horn cross-sections
Protocol: Twenty-seven (27) female Friesian cross heifers, approximately 24 months of age were allocated randomly to three treatment groups control, 50 mg and 250 mg of the PDE V inhibitor administered intra-vaginally twice daily. Oestrous was synchronised using two intramuscular injections of PGF2 alpha (Lutalyse™) administered 11 days apart. The PDE V inhibitor was administered intra-vaginally twice daily from day −3 of oestrus until day 6 of the following oestrus (30 days in total). Blood samples were collected daily, plasma was prepared as soon as possible and stored at −20 DEG C. and then analysed for progesterone. At the completion of the study (ie day 6 of the second oestrous period) the cattle were euthanised and the reproductive tract collected. A cross section of the left and right horns of each uterus was collected and stored in 10% Formalin and then analysed histologically.

[5] = system: patients undergoing in vitro fertilisation (IVF) with prior poor endometrial response; conditions: Hum. Reprod., 2000, 15(4), 806-809; cited from earlier work
[6] = 0.3 mg/kg s.c. throughout gestation
[7] = 1 mg/kg s.c. throughout gestation
[8] = 5 mg/kg s.c. throughout gestation

Compound: CCCOc1ccc(S(=O)(=O)N2CCN(CC)CC2)cc1-c1nc2c(CC)n(Cc3ccccn3)nc2c(=O)[nH]1 [3-ethyl-5-[5-(4-ethylpiperazin-1-ylsulphonyl)-2-n-propoxyphenyl]-2-(pyridin-2-yl)methyl-2,6-dihydro-7H-pyrazolo[4,3-d]pyrimidin-7-one]
- embryonic/foetal growth and birthweight (in words, FIG. 1) [1]: promotes embryonic and/or foetal growth and consequently increases birthweight
- rate of embryo survival (in words) ([2]; days 1-4 or 4-8 of gestation): improved the rate of embryo survival in both cases
- rate of embryo survival and maintenance of pregnancy (in words) ([2]; days 1 to 8 of gestation, CBA×DBA mice): improves significantly the rate of embryo survival and the maintenance of pregnancy

Compound: CCCOc1ccc(S(=O)(=O)N2CCN(CC)CC2)cc1-c1nc2c(CC)n(Cc3ccccn3)nc2c(=O)[nH]1 [A, 3-ethyl-5-[5-(4-ethylpiperazin-1-ylsulphonyl)-2-n-propoxyphenyl]-2-(pyridin-2-yl)methyl-2,6-dihydro-7H-pyrazolo[4,3-d]pyrimidin-7-one]
- mean arterial blood pressure (MAP) (FIG. 2) [3]: No significant effect on mean arterial blood pressure
- uterine blood flow relative to control (FIG. 2) [3]: improves significantly uterine blood relative to control animals
- endometrial epithelial thickness relative to control (FIG. 5) [4]: increases endometrial epithelial thickness relative to control animals
- % increase (birthweights of rat pups) [1, 6]: 2%
- % increase (birthweights of rat pups) [1, 7]: 6%
- % increase (birthweights of rat pups) [1, 8]: 10%
- % increase (birthweights of rat pups) ([1]; 10 mg/kg s.c. throughout gestation): 12%
- comparison of effectiveness on birth weights of rat pups ([1]; A versus B, s.c. throughout gestation): more effective than compound B
- embryonic/foetal growth and birthweight (in words, FIG. 1) ([1]; listed as 3-ethyl-5-(5-(4-ethylpiperazin-1-ylsulphonyl)-2-n-propoxyphenyl)-2-(pyridin-2-yl)): increases birthweights of rat puts
- % Embryo Survival ([2]; 1 mg/kg i.p. daily, days 1-4 of gestation, control 54): 81%
- % Embryo Survival ([2]; 1 mg/kg i.p. daily, days 1-8 of gestation, control 51): 90%
- % Embryo Survival ([2]; 1 mg/kg i.p. daily, days 4-8 of gestation, control 54): 70%
- % Embryo Survival ([2]; 3 mg/kg i.p. daily, days 1-8 of gestation, control 51): 84%

Compound: CCCc1nn(C)c2c(=O)[nH]c(-c3cc(S(=O)(=O)N4CCN(C)CC4)ccc3OCC)nc12 [sildenafil, 5-[2-ethoxy-5-(4-methyl-1-piperazinylsulphonyl)phenyl]-1-methyl-3-n-propyl-1,6-dihydro-7H-pyrazolo[4,3-d]pyrimidin-7-one]
- uterine artery blood flow and endometrial development [5]: may be effective for improving uterine artery blood flow and endometrial development

Compound: CN1CC(=O)N2[C@H](c3ccc4c(c3)OCO4)c3[nH]c4ccccc4c3C[C@@H]2C1=O [B, (6R, 12aR)-2,3,6,7,12,12a-hexahydro-2-methyl-6-(3,4-methylenedioxyphenyl)-pyrazino[2′,1′:6,1]pyrido[3,4-b]indole-1,4-dione, reference compound]
- % increase (birthweights of rat pups) [1, 6]: 0%
- % increase (birthweights of rat pups) [1, 7]: 1%
- % increase (birthweights of rat pups) [1, 8]: 5%
